Values quoted from earlier work, collected in paper PMC2923200, “Identification of a Cardiac Specific Protein Transduction Domain by In Vivo Biopanning Using a M13 Phage Peptide Display Library in Mice” (PLoS ONE, 2010).

Conditions: in vitro phage display screening by other investigators
Description: However, it is unclear how the ability of CTP to interact with these cellular components in vitro facilitates transduction of cardiac specific tissue in vivo. We currently are examining whether the transduction process is energy independent as well as whether it involves endocytosis. Also, the s ...

APWHLSSQYSRT [CTP]
affinity for binding to apatite-based, bone-like minerals: high affinity | affinity for binding to two specific sulfated carbohydrates: high affinity
